What was measured:
CoV-OC43 = assay: in vitro inhibition of infection of cells with test virus CoV-OC43; type: cell-based; settings: for infection of cells by CoV-OC43 at different concentrations: different dilutions of the sialic acid, two replicates, FIGS. 1 and 2
Method: FIG. 1 provides data from one replicate showing infection of cells by CoV-OC43 at different concentrations of either Neu5Ac or Neu5Gc.
FIG. 2 provides data from another replicate showing infection of cells by CoV-OC43 at different concentrations of either Neu5Ac or Neu5Gc.
FIG. 3 provides data from an experiment where inhibition of infection by Neu5Ac is compared to a control sugar, galactose.
The effectiveness of sialic acid (Neu5Ac or Neu5Gc) in preventing corona virus infection was evaluated in vitro in a model system. Different dilutions of the sialic acids were tested for their ability to inhibit infection of cells with the test virus CoV-OC43. FIGS. 1 and 2 provide data from two replicates showing infection of cells by CoV-OC43 at different concentrations of either Neu5Ac or Neu5Gc (Neu5Ac left hand bars, Neu5Gc right hand bars).

[1] = according to Schalcter (2017), cited from earlier work

Row | Structure (SMILES) | infection of cells by CoV-OC43 at different concentrations (CoV-OC43) | excretion via urine [1] | absorption after ingestion ([1]; after ingestion) | inhibition of infection compared to a control sugar, galactose (CoV-OC43; CoV-OC43, FIG. 3)
1 | O=C(CO)N[C@H]1[C@H]([C@H](O)[C@H](O)CO)OC(O)(C(=O)O)C[C@@H]1O (some centres unmarked) [Neu5Gc, N-glycolylneuraminic acid] | inhibited in a dose-dependent manner |  |  | 
2 | CC(=O)N[C@H]1[C@H]([C@H](O)[C@H](O)CO)OC(O)(C(=O)O)C[C@@H]1O (some centres unmarked) [Neu5Ac, N-acetyl neuraminic acid] | inhibited in a dose-dependent manner | quickly excreted via urine | rapidly absorbed | prevents infection as compared to the control
